Where “and” joins values, the source holds several entries; their conditions need not be identical. Equal entries are not always repeated. Where a SMILES comes first, the peptide text is derived from it. [ ]: non-standard residue; d: D form.
The compounds below were run on rat's hind paw heat-edema (assay: heat-induced paw edema in pentobarbital-anesthetized rat (58° C. water, 1 minute)). Conditions: dose 1 mg/kg i.v., ten minutes before 58° C. water for 1 minute; edema measured 30 minutes after heat.
Assay type: in vivo
Experimental: The inventive peptides were dissolved either in saline or saline acidified with 0.1 M acetic acid and injected intravenously into a pentobarbital-anesthetized rat. The rat's hind paw was then immersed in 58°-60° C. water for 1 minute and the increase in paw weight, as an index of edema and swelling, was measured 30 minutes later. For some peptides, the ability of the substances to inhibit vascular leakage after muscle injury was also tested. Normally, the paw weight of saline-treated animals (controls) will increase by about 65-95% after heat injury. The increase in weight is relative to the contralateral non-heated paw.
In screening the bioactivity of new peptides, a dose of 5 mg/kg i.v. was initially used. In later studies, when greater activity was expected, a screening dose of 1 to 2 mg/kg i.v. was used.
Thus, each peptide was injected intravenously (at the amounts specified, usually 1 or 5 mg/kg, or by full dose-response analysis) 10 minutes (for 7/8-mers) or one hour (for 11-mers) before immersion of the right paw in 58° C. water, for 1 minute, and weights of both paws were obtained 30minutes later. To obtain statistical accuracy, four to six animals were used in each group. The % wt increase was calculated as (wt of heated paw--wt of unheated paw/wt of unheated paw)×100 and converted to % of the saline control group values, which were run concurrently.

Row | Compound | Heat-Edema % Saline Values [% Saline Values]
1 | CC[C@H](C)[C@H](NC(=O)[C@@H](CCCCN)NC(=O)[C@H](CC(C)C)NC(=O)[C@H](CC(C)C)NC(=O)[C@H](CCCCN)NC(=O)[C@H](CCCNC(=N)N)NC(C)=O)C(=O)N[C@H](CC(C)C)C(N)=O [Composition 19] (HELM PEPTIDE1{[ac].R.K.L.L.[dK].I.[dL].[am]}$$$$V2.0) | 23 ± 8

Same assay, conditions: dose 2 mg/kg i.v., ten minutes before 58° C. water for 1 minute; edema measured 30 minutes after heat

Row | Compound | Heat-Edema % Saline Values [% Saline Values]
2 | CC[C@H](C)[C@H](NC(=O)[C@H](Cc1ccc(OC)cc1)NC(=O)[C@@H](NC(=O)[C@H](CC(C)C)NC(=O)[C@H](CCCCN)NC(=O)[C@H](CCCNC(=N)N)NC(C)=O)C(C)C)C(=O)N[C@H](CC(C)C)C(N)=O [Composition 17] (Ac-RKLVY(Me)I[dL]-NH2) | 49 ± 9
3 | CC[C@H](C)[C@H](NC(=O)[C@H](Cc1ccc(OC)cc1)NC(=O)[C@H](CCSC)NC(=O)[C@H](CC(C)C)NC(=O)[C@H](CCCCN)NC(=O)[C@@H](CCCCN)NC(C)=O)C(=O)N[C@H](CC(C)C)C(N)=O [Composition 16] (Ac-[dK]KLMY(Me)I[dL]-NH2) | 67 ± 11
4 | CC[C@H](C)[C@H](NC(=O)[C@H](Cc1ccc(OC)cc1)NC(=O)[C@H](CCSC)NC(=O)[C@H](CC(C)C)NC(=O)[C@H](CCCCN)NC(=O)[C@H](CCCNC(=N)N)NC(C)=O)C(=O)N[C@H](CC(C)C)C(N)=O [Composition 18] (Ac-RKLMY(Me)I[dL]-NH2) | 27 ± 1
5 | CC[C@H](C)[C@H](NC(=O)[C@H]1CCCN1C(=O)[C@H](CCSC)NC(=O)[C@H](CC(C)C)NC(=O)[C@H](CCCCN)NC(=O)[C@@H](N)CCCNC(=N)N)C(=O)N[C@H](CC(C)C)C(N)=O [Composition 14] (HELM PEPTIDE1{R.K.L.M.[dP].I.[dL].[am]}$$$$V2.0) | 21 ± 3

Same assay, conditions: dose 5 mg/kg i.v., ten minutes before 58° C. water for 1 minute; edema measured 30 minutes after heat; N.S. = not different from saline

Row | Compound | Heat-Edema % Saline Values [% Saline Values]
6 | CC[C@H](C)[C@H](NC(=O)[C@H](Cc1ccc(O)cc1)NC(=O)[C@H](CCSC)NC(=O)[C@H](CC(C)C)NC(=O)[C@H](CCCCN)NC(=O)[C@@H](N)CCCNC(=N)N)C(=O)N[C@H](CC(C)C)C(N)=O [Composition 5] (HELM PEPTIDE1{R.K.L.M.Y.I.[dL].[am]}$$$$V2.0) | 70 ± 9
7 | CC[C@H](C)[C@H](NC(=O)[C@H](Cc1ccc([N+](=O)[O-])cc1)NC(=O)[C@H](CC(C)C)NC(=O)[C@H](CC(C)C)NC(=O)[C@H](CCCCN)NC(=O)[C@@H](N)CCCNC(=N)N)C(=O)N[C@H](CC(C)C)C(N)=O [Composition 12] (HELM PEPTIDE1{R.K.L.L.[O=C([C@H](Cc1ccc([N+](=O)[O-])cc1)N[*:1])[*:2]].I.[dL].[am]}$$$$V2.0) | 41 ± 6
8 | CC[C@H](C)[C@H](NC(=O)[C@H](Cc1ccc(F)cc1)NC(=O)[C@H](CC(C)C)NC(=O)[C@H](CC(C)C)NC(=O)[C@H](CCCCN)NC(=O)[C@@H](N)CCCNC(=N)N)C(=O)N[C@H](CC(C)C)C(N)=O [Composition 10] (HELM PEPTIDE1{R.K.L.L.[O=C([C@H](Cc1ccc(F)cc1)N[*:1])[*:2]].I.[dL].[am]}$$$$V2.0) | 54 ± 11
9 | CC[C@H](C)[C@H](NC(=O)[C@H](CCCNC(=N)N)NC(=O)[C@H](CC(C)C)NC(=O)[C@H](CC(C)C)NC(=O)[C@H](CCCCN)NC(=O)[C@@H](N)CCCNC(=N)N)C(=O)N[C@H](CC(C)C)C(N)=O [Composition 9] (HELM PEPTIDE1{R.K.L.L.R.I.[dL].[am]}$$$$V2.0) | 18 ± 3
10 | CC[C@H](C)[C@H](NC(=O)[C@H](CCCCN)NC(=O)[C@H](CC(C)C)NC(=O)[C@H](CC(C)C)NC(=O)[C@H](CCCCN)NC(=O)[C@@H](N)CCCNC(=N)N)C(=O)N[C@H](CC(C)C)C(N)=O [Composition 8] (HELM PEPTIDE1{R.K.L.L.K.I.[dL].[am]}$$$$V2.0) | 38 ± 10
11 | CC[C@H](C)[C@H](NC(=O)[C@H](Cc1c[nH]c2ccccc12)NC(=O)[C@H](CCSC)NC(=O)[C@H](CC(C)C)NC(=O)[C@H](CCCCN)NC(=O)[C@@H](N)CCCNC(=N)N)C(=O)N[C@H](CC(C)C)C(N)=O [Composition 7] (HELM PEPTIDE1{R.K.L.M.W.I.[dL].[am]}$$$$V2.0) | 38 ± 5
12 | CC[C@H](C)[C@H](NC(=O)[C@H](CC(C)C)NC(=O)[C@H](CCSC)NC(=O)[C@H](CC(C)C)NC(=O)[C@H](CCCCN)NC(=O)[C@@H](N)CCCNC(=N)N)C(=O)N[C@H](CC(C)C)C(N)=O [Composition 6] (HELM PEPTIDE1{R.K.L.M.L.I.[dL].[am]}$$$$V2.0) | 67 ± 10
13 | CC[C@H](C)[C@H](NC(=O)[C@H](Cc1ccc(I)cc1)NC(=O)[C@H](CC(C)C)NC(=O)[C@H](CC(C)C)NC(=O)[C@H](CCCCN)NC(=O)[C@@H](N)CCCNC(=N)N)C(=O)N[C@H](CC(C)C)C(N)=O [Composition 11] (HELM PEPTIDE1{R.K.L.L.[O=C([C@H](Cc1ccc(I)cc1)N[*:1])[*:2]].I.[dL].[am]}$$$$V2.0) | 49 ± 6

Same assay, conditions: dose 5 mg/kg i.v., ten minutes before 58° C. water for 1 minute; edema measured 30 minutes after heat; N.S. = not different from saline; 5 mg/kg

Row | Compound | Heat-Edema % Saline Values
14 | CC[C@H](C)[C@H](NC(=O)[C@H](Cc1ccc(Cl)cc1)NC(=O)[C@H](CC(C)C)NC(=O)[C@H](CC(C)C)NC(=O)[C@H](CCCCN)NC(=O)[C@@H](N)CCCNC(=N)N)C(=O)N[C@H](CC(C)C)C(N)=O [Composition 13] (HELM PEPTIDE1{R.K.L.L.[O=C([C@H](Cc1ccc(Cl)cc1)N[*:1])[*:2]].I.[dL].[am]}$$$$V2.0) | 15 ± 5 % Saline Values and 15 % Saline Values

Same assay, conditions: heat-edema, relative to saline controls

Row | Compound | anti-inflammatory activity, result in words
15 | CC[C@H](C)[C@H](NC(=O)[C@H](Cc1ccc(OC)cc1)NC(=O)[C@@H](NC(=O)[C@H](CC(C)C)NC(=O)[C@H](CCCCN)NC(=O)[C@H](CCCNC(=N)N)NC(C)=O)C(C)C)C(=O)N[C@H](CC(C)C)C(N)=O [Composition 17] (Ac-RKLVY(Me)I[dL]-NH2) | retains activity, albeit at a lower potency
16 | CC[C@H](C)[C@H](NC(=O)[C@H](Cc1ccc(OC)cc1)NC(=O)[C@H](CCSC)NC(=O)[C@H](CC(C)C)NC(=O)[C@H](CCCCN)NC(=O)[C@@H](CCCCN)NC(C)=O)C(=O)N[C@H](CC(C)C)C(N)=O [Composition 16] (Ac-[dK]KLMY(Me)I[dL]-NH2) | retention of activity
17 | CC[C@H](C)[C@H](NC(=O)[C@H](Cc1ccc(OC)cc1)NC(=O)[C@H](CCSC)NC(=O)[C@H](CC(C)C)NC(=O)[C@H](CCCCN)NC(=O)[C@H](CCCNC(=N)N)NC(C)=O)C(=O)N[C@@H](C(N)=O)C(C)C [Composition 25] (Ac-RKLMY(Me)I[dV]-NH2) | retains activity
18 | CC[C@H](C)[C@H](NC(=O)[C@H](CCCNC(=N)N)NC(=O)[C@H](CCCNC(=N)N)NC(C)=O)C(=O)N[C@H](C(=O)N[C@@H](Cc1ccc(OC)cc1)C(=O)N[C@H](C(=O)N[C@H](CC(C)C)C(N)=O)[C@@H](C)CC)[C@@H](C)CC [Composition 26] (Ac-RRIIY(Me)I[dL]-NH2) | potent anti-inflammatory properties

Same assay, conditions: i.v.; 11-mers, injected one hour before 58° C. water for 1 minute; paw weight 30 minutes later; Table 1

Row | Compound | ED50 (95% confidence limits)
19 | 1ATyRKLL(β-thienyl-D--Ala)Il-NH2 | 0.015 (0.006-0.036) mg/kg

Same assay, conditions: i.y. [sic]; 7/8-mers, ten minute interval between administration and 58° C. water for 1 minute; edema 30 minutes after heat; Table 3

Row | Compound | ED50 (95% confidence limits)
20 | CC[C@H](C)[C@H](NC(=O)[C@H](Cc1ccc(OC)cc1)NC(=O)[C@H](CCSC)NC(=O)[C@H](CC(C)C)NC(=O)[C@H](CCCCN)NC(=O)[C@@H](CCCNC(=N)N)NC(C)=O)C(=O)N[C@H](CC(C)C)C(N)=O [Composition 27] (Ac-[dR]KLMY(Me)I[dL]-NH2) | 0.52 (0.19-1.8) mg/kg
21 | CC[C@H](C)[C@H](NC(=O)[C@H](Cc1ccc(OC)cc1)NC(=O)[C@H](CCSC)NC(=O)[C@H](CC(C)C)NC(=O)[C@H](CCCCN)NC(=O)[C@H](CCCNC(=N)N)NC(C)=O)C(=O)N[C@@H](C(N)=O)C(C)C [Composition 25] (Ac-RKLMY(Me)I[dV]-NH2) | 1.0 (0.52-1.9) mg/kg
22 | CC[C@H](C)[C@H](NC(=O)[C@H](Cc1ccc(OC)cc1)NC(=O)[C@H](CCSC)NC(=O)[C@H](CC(C)C)NC(=O)[C@H](CCCCN)NC(=O)[C@H](CCCNC(=N)N)NC(=O)[C@H](Cc1ccc(OC)cc1)NC(C)=O)C(=O)N[C@H](CC(C)C)C(N)=O [Composition 29] (Ac-Y(Me)RKLMY(Me)I[dL]-NH2) | 0.22 (0.09-0.55) mg/kg
23 | CC[C@H](C)[C@H](NC(=O)[C@@H](Cc1c[nH]cn1)NC(=O)[C@H](CC(C)C)NC(=O)[C@H](CC(C)C)NC(=O)[C@H](CCCCN)NC(=O)[C@@H](N)CCCNC(=N)N)C(=O)N[C@H](CC(C)C)C(N)=O [Composition 20] (HELM PEPTIDE1{R.K.L.L.[dH].I.[dL].[am]}$$$$V2.0) | 2.3 (1.2-4.2) mg/kg
24 | CC[C@H](C)[C@H](NC(=O)[C@H](CCCNC(=N)N)NC(=O)[C@H](CCCNC(=N)N)NC(C)=O)C(=O)N[C@H](C(=O)N[C@@H](Cc1ccc(OC)cc1)C(=O)N[C@H](C(=O)N[C@H](CC(C)C)C(N)=O)[C@@H](C)CC)[C@@H](C)CC [Composition 26] (Ac-RRIIY(Me)I[dL]-NH2) | 0.70 (0.40-1.2) mg/kg
25 | CC[C@H](C)[C@H](NC(=O)[C@@H](CCCNC(=N)N)NC(=O)[C@H](CC(C)C)NC(=O)[C@H](CC(C)C)NC(=O)[C@H](CCCCN)NC(=O)[C@@H](N)CCCNC(=N)N)C(=O)N[C@H](CC(C)C)C(N)=O [Composition 21] (HELM PEPTIDE1{R.K.L.L.[dR].I.[dL].[am]}$$$$V2.0) | 2.0 (0.80-5.0) mg/kg
26 | CC[C@H](C)[C@H](NC(=O)[C@@H](Cc1c[nH]c2ccccc12)NC(=O)[C@H](CC(C)C)NC(=O)[C@H](CC(C)C)NC(=O)[C@H](CCCCN)NC(=O)[C@@H](N)CCCNC(=N)N)C(=O)N[C@H](CC(C)C)C(N)=O [Composition 24] (HELM PEPTIDE1{R.K.L.L.[dW].I.[dL].[am]}$$$$V2.0) | 0.82 (0.56-1.2) mg/kg

Source: patent US5480869A, “Anti-inflammatory peptide analogs and treatment to inhibit vascular leakage in injured tissues” (The Regents of the University of California, priority 1993, dated 1996)
